We go through nine compounds from patent EP4703354A1, “COMPOUND AS CCR6 ANTAGONIST, AND PHARMACEUTICAL COMPOSITION AND USE THEREOF” (Wuhan Createrna Science and Technology Co.,Ltd., priority 2023, dated 2024).

One data set concerns the target T1, human CCR6 (Homo sapiens, UniProt P51684).
T1 construct: expressed in transfected cells; host or cells: HEK293
T1 sequence (P51684 1-374): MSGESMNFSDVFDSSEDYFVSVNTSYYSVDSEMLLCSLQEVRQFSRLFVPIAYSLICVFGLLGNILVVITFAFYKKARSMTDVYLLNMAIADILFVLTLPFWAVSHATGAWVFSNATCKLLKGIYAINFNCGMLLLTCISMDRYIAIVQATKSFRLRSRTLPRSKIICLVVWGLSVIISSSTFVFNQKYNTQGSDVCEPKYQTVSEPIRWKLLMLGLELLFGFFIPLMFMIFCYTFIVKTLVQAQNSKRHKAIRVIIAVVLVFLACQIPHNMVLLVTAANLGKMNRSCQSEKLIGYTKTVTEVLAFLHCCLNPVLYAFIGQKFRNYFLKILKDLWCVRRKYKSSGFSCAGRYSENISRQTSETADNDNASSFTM
In words: human CCR6 calcium flux activity (FLIPR, HEK293 cells stably expressing human CCR6, CCL20 stimulation). The conditions noted are these: for IC50: HEK293 cells stably expressing human CCR6, EC80 human MIP-3 alpha/CCL20, read-out: CCR6 inhibitory activity, IC50; for CCR6 selectivity: ratio of CXCR2 IC50 to CCR6 IC50. Format: cell-based. The procedure, abridged:
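Read-out is the RFUMax−RFUMin calcium signal (494/516 nm, 90 s) after EC80 CCL20 addition, fitted four-parameter for IC50. Before agonist, Fluo-4 Direct-loaded cells sat with compound 50 min at 37 °C plus 10 min at room temperature.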

Data set [1] is described as follows: in vivo pharmacokinetic study in SD rats. The conditions noted are these: male, rat, plasma; for bioavailability: 1 mg/kg PO vs 1 mg/kg IV, read-out: Oral bioavailability F (%); for AUC(0-t) / Cmax / half-life: 1 mg/kg. In a few lines:
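Male SD rats (180-200 g), 3 per route: single fasted oral gavage in 1% Tween 80 or tail-vein IV bolus in 50% PEG400. Orbital blood into EDTA-K2 sampled to 8 h; plasma analysed and PK parameters derived by non-compartmental analysis.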

A further data set has as its target T2, human CXCR2 (Homo sapiens, UniProt P25025).
T2 construct: expressed in transfected cells; host or cells: HEK293
T2 sequence (P25025 1-360): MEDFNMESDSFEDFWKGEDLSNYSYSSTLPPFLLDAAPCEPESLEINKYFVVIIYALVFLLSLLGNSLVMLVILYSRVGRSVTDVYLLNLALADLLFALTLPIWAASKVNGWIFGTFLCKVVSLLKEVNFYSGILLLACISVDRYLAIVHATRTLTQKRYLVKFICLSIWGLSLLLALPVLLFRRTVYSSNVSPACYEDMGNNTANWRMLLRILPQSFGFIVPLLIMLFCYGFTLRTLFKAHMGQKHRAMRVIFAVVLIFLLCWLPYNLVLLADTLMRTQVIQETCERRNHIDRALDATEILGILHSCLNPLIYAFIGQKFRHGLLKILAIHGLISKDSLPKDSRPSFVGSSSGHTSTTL
Nature of the data set: human CXCR2 calcium flux activity (FLIPR, HEK293 cells stably expressing human CXCR2, IL-8 stimulation). It is filed as cell-based. The following applies: HEK293 cells stably expressing human CXCR2, EC80 human IL-8; read-out: CXCR2 inhibitory activity, IC50. Here is the method:
The activity of the compounds was evaluated using HEK293 cells stably expressing human CXCR2 via the FLIPR platform. A 384-well black cell culture plate (Greiner, 781946) was used, with a seeding density of 20,000 cells/well, and incubated overnight at 37°C in a 5% CO2 incubator. The culture medium in the cell plate wells was removed, and 20 µL of Fluo-4 Direct™ Calcium Assay Buffer (Invitrogen, F10471, Component C), 20 µL of 2× Fluo-4 Direct™ Calcium Assay Reagent (Invitrogen, F10471, Component A) working solution, and 10 µL of 6× test compound working solution were sequentially added to each well. The cell plate was incubated in a 37 °C, 5% CO2 incubator for 50 min, followed by a 10 min incubation at room temperature. Additionally, a 6×EC80 human IL-8 (Sigma, SRP3311) working solution was prepared. After the incubation was completed, 10 µL/well of the 6×EC80 human IL-8 working solution was transferred to the corresponding cell wells using a FLIPR instrument, and the fluorescence signal changes at an excitation wavelength of 494 nm and an emission wavelength of 516 nm were recorded over 130 s. The difference between the maximum fluorescence signal (RFUMax) and the minimum fluorescence signal (RFUMin) was used as the output signal. The compound inhibition rate and the log value of the compound concentration were calculated, and a four-parameter fitting analysis was performed using GraphPad Prism 8 software to obtain the IC50 value of the test compound. Table 1. Inhibitory activity data of compounds against CCR6 and CXCR2
Background: A change in cytosolic calcium serves as a functional read-out for many receptors and channels.

What is called IC50 is the concentration that gives 50% inhibition. One may read the bioavailability as the share of a dose that reaches the circulation, judged against a reference dose that is usually intravenous. Usually AUC(0-t) stands for the area under the concentration-time curve up to a stated or last time point. Low values mean low exposure, high ones high exposure. By Cmax is commonly meant the highest concentration seen after dosing. A word on the half-life: it is the time needed for the level to fall by half in the phase considered. As to `CN(C)C(=O)c1nccc(Nc2c(N[C@@H](c3nc(C(F)F)ccc3F)C3(C)CCCC3)c(=O)c2=O)c1O` [compound 109, (R)-4-((2-(((6-(difluoromethyl)-3-fluoropyridin-2-yl)(1-methylcyclopentyl)methyl)amino)-3,4-dioxocyclobut-1-en-1-yl)amino)-3-hydroxy-N,N-dimethylpicolinamide], on human CCR6, the IC50 was 2.4 nM and the CCR6 selectivity is recorded as 55.5. In addition, the bioavailability in data set [1] came out at 61.8%. In data set [1] (IV), the AUC(0-t) stood at 786 ng·h/mL, the Cmax came to 3140 ng/mL and the half-life was 0.5 h. In data set [1] (PO), the AUC(0-t) was found to be 485 ng·h/mL, the highest level (Cmax) was 264 ng/mL and the half-life was 2.07 h. Also, the IC50 at human CXCR2 is 133 nM.

Turning to `CN(C)C(=O)c1nccc(Nc2c(N[C@@H](c3nc(Cl)ccc3F)C3(C)CCCC3)c(=O)c2=O)c1O` [compound 053, (R)-4-((2-(((6-chloro-3-fluoropyridin-2-yl)(1-methylcyclopentyl)methyl)amino)-3,4-dioxocyclobut-1-en-1-yl)amino)-3-hydroxy-N,N-dimethylpicolinamide], on human CCR6, the IC50 stood at 1.5 nM and the CCR6 selectivity is on record as 1163.3. Also, the bioavailability in data set [1] was determined as 33.1%. In data set [1] (IV), the AUC(0-t) was 1800 ng·h/mL and the concentration peaked (Cmax) at 3890 ng/mL. In data set [1] (PO), this compound gave an AUC(0-t) of 596 ng·h/mL, a Cmax of 380 ng/mL and a half-life of 2.33 h. In addition, on human CXCR2, the IC50 was 1750 nM.

As to `Cc1cccnc1[C@H](Nc1c(Nc2ccnc(C(=O)N(C)C)c2O)c(=O)c1=O)C1(C)CCCC1` [compound 018, (R)-3-hydroxy-N,N-dimethyl-4-((2-(((1-methylcyclopentyl)(3-methylpyridin-2-yl)methyl)amino)-3,4-dioxocyclobut-1-en-1-yl)amino)picolinamide], at human CCR6, the IC50 was 11 nM and the CCR6 selectivity is recorded as 8363.5. Also, the bioavailability in data set [1] came to 49.1%. In data set [1] (IV), the AUC(0-t) came to 1160 ng·h/mL and the Cmax is 2240 ng/mL. In data set [1] (PO), this compound gave an AUC(0-t) of 1710 ng·h/mL, a Cmax of 920 ng/mL and a half-life of 4.3 h. Further, the IC50 on human CXCR2 was 92000 nM.

For `CN(C)C(=O)c1nccc(Nc2c(N[C@@H](c3nc(CF)ccc3F)C3(C)CCCC3)c(=O)c2=O)c1O` [compound 094, (R)-4-((2-(((3-fluoro-6-(fluoromethyl)pyridin-2-yl)(1-methylcyclopentyl)methyl)amino)-3,4-dioxocyclobut-1-en-1-yl)amino)-3-hydroxy-N,N-dimethylpicolinamide], on human CCR6, the IC50 was 1.1 nM and the CCR6 selectivity is listed as 174.73. Besides, in data set [1], the bioavailability came out at 22.8%. In data set [1] (IV), this compound gave an AUC(0-t) of 1210 ng·h/mL, a Cmax of 4460 ng/mL and a half-life of 0.37 h. In data set [1] (PO), this compound showed an AUC(0-t) of 276 ng·h/mL, a Cmax of 208 ng/mL and a half-life of 2.18 h. In addition, the IC50 on human CXCR2 came out at 192 nM.

On to `CN(C)C(=O)c1nccc(Nc2c(N[C@@H](c3cccc(C(F)F)n3)C3(C)CCCC3)c(=O)c2=O)c1O` [compound 107, (R)-4-((2-(((6-(difluoromethyl)pyridin-2-yl)(1-methylcyclopentyl)methyl)amino)-3,4-dioxocyclobut-1-en-1-yl)amino)-3-hydroxy-N,N-dimethylpicolinamide], for which the IC50 on human CCR6 amounted to 3.8 nM; on human CXCR2, 745 nM. Also, the CCR6 selectivity at human CCR6 worked out at 196.0.

`Cc1cc(F)cnc1[C@H](Nc1c(Nc2ccnc(C(=O)N(C)C(C)C)c2O)c(=O)c1=O)C1(C)CCCC1` [compound 066, (R)-4-((2-(((5-fluoro-3-methylpyridin-2-yl)(1-methylcyclopentyl)methyl)amino)-3,4-dioxocyclobut-1-en-1-yl)amino)-3-hydroxy-N-isopropyl-N-methylpicolinamide]: on human CCR6, the half-maximal inhibitory concentration (IC50) worked out at 19 nM and the CCR6 selectivity was found to be 2522.7. Also, the IC50 on human CXCR2 was determined as 47900 nM.

For the compound `CN(C)C(=O)c1nccc(Nc2c(N[C@@H](c3ncccc3Cl)C3(C)CCCC3)c(=O)c2=O)c1O` [compound 019, (R)-4-((2-(((3-chloropyridin-2-yl)(1-methylcyclopentyl)methyl)amino)-3,4-dioxocyclobut-1-en-1-yl)amino)-3-hydroxy-N,N-dimethylpicolinamide], on human CCR6, the IC50 came out at 5 nM and the CCR6 selectivity was determined as 364.2. In addition, the half-inhibitory concentration (IC50) on human CXCR2 was 1820 nM.

As to `CN(C)C(=O)c1nccc(Nc2c(N[C@@H](c3nc(F)ccc3F)C3(C)CCCC3)c(=O)c2=O)c1O` [compound 023, (R)-4-((2-(((3,6-difluoropyridin-2-yl)(1-methylcyclopentyl)methyl)amino)-3,4-dioxocyclobut-1-en-1-yl)amino)-3-hydroxy-N,N-dimethylpicolinamide], on human CCR6, the half-inhibitory concentration (IC50) was found to be 0.9 nM and the CCR6 selectivity came to 227.0. Also, the bioavailability in data set [1] was 30.5%. In data set [1] (IV), this compound returned an AUC(0-t) of 2020 ng·h/mL and a Cmax of 4130 ng/mL. In data set [1] (PO), the AUC(0-t) stood at 616 ng·h/mL, the Cmax worked out at 335 ng/mL and the half-life is 2.08 h. For the same compound, the IC50 at human CXCR2 worked out at 204 nM.

With `CN(C)C(=O)c1nccc(Nc2c(N[C@@H](c3ncccc3CF)C3(C)CCCC3)c(=O)c2=O)c1O` [compound 016, (R)-4-((2-(((3-(fluoromethyl)pyridin-2-yl)(1-methylcyclopentyl)methyl)amino)-3,4-dioxocyclobut-1-en-1-yl)amino)-3-hydroxy-N,N-dimethylpicolinamide], on human CCR6, the IC50 was determined as 55.8 nM and the CCR6 selectivity is recorded as 494.9. The IC50 at human CXCR2 came to 27600 nM.
